Patent US5965527A, “Cyclosporin compounds, their preparation and the pharmaceutical compositions which contain them” (Rhone-Poulenc Rorer, S.A., priority 1996, dated 1999)

System: retroviruses
Conditions: combined with AZT, ddl, Saquinavir and/or ribavirin

## [(R)-2-(N,N-Dimethylamino)ethylthio-Sar]^3 -cyclosporin A [Example 2]
  effect in combination: particularly advantageous effect
